Read-outs that look alike come from different tables or passages of the source.
Assay: Pharmacokinetic profile and brain distribution in mice after oral administration
Assay type: in vivo, mice (ICR)
Conditions: for Kp / Cmax / Tmax / AUC(0-t) / MRT last / half-life / AUC(0-inf): ICR (CD-1), mouse
Experimental: Example 1 evaluated pharmacokinetic profile and brain distribution of belvarafenib in mice after oral administration.
The mouse strain was ICR (CD-1®) supplied by Orient Bio Inc., Korea.
The mice were kept in conventional animal lab cages for 5 days for acclimation before the start of the experiment. The cages were polysulfone 1291H (W425×D266×H185 mm, Techniplast, Italy). Twelve mice were housed in each cage at a temperature of 22±2° C., a relative humidity of 50±20%, a ventilation frequency of 10-15 times/h, a 12 hour light/dark cycle, a light intensity of 150-300 Lux, at least weekly cage replacement. The mice were fed Picolab Rodent diet (5053, Lab Diet, USA) with abundant tap water.
The mice were dosed with belvarafenib dihydrochloride, 99.6% purity, that was stored at room temperature. Dosing was based on active ingredient free base and was corrected for assay and water content. The dosing vehicle was DMSO (5%), cremophore EL (5%), and deionized water (90%). Belvarafenib for dosing (28.08 mg) was dissolved in 14.40 mL of the vehicle for a final concentration of 1.950 mg/mL.
In a single one day dosing regimen, mice were fasted overnight. The body weight of the mice was measured on the day of treatment, from which dosing volumes were set. […] The mice were fed 4 hours post-dose.
Blood (0.3 mL) was collected from the retro-orbital plexus at 0.5, 1, 2, 4, 7, 24, 48, and 72 hours after belvarafenib administration. Plasma was obtained by centrifugation at 12,000 rpm for 2 minutes (Eppendorf) and then harvested and stored at −20° C. (Panasonic, MDF-U334-PK) until analysis.
After bloodletting of mice at each time point, the brain was collected immediately without perfusion. Brain tissue was washed one to two times with saline to remove surface blood. The brains were then trimmed. The collected brain tissue was accurately weighed and mixed with 4-fold saline based on brain weight (a final dilution factor of 5-fold). Each brain sample was then homogenized and placed in a 1.5 mL tube and stored at −20° C. (Panasonic, MDF-U334-PK) until analysis.
Plasma and brain of untreated animals were similarly obtained for use as a blank matrix.
Plasma and brain concentrations of belvarafenib determined by analysis using LC-MS/MS (Waters UPLC H-Class/Xevo TQ (Waters USA)).
Pharmacokinetic parameters of belvarafenib were calculated from plasma and brain concentration-time data by a non-compartmental method using Phoenix™ WinNonlin 8.1 (Certara, USA). The peak plasma and brain concentration (Cmax) and the corresponding time (Tmax) were directly obtained from the raw data. The area under the plasma curve (AUClast) was obtained by linear-log trapezoidal summation. Other PK parameters such as AUC from dosing time extrapolated to infinity (AUCinf), half-life (t1/2) and mean residence time (MTRlast) were calculated using WinNonlin. The plasma and brain concentrations of belvarafenib were presented as MEAN±S.D. The brain to plasma (B/P) ratio of Belvarafenib was calculated by dividing AUClast in the brain by AUClast in the plasma.

SMILES: Cc1ccc2c(Nc3cccc(Cl)c3F)nccc2c1NC(=O)c1csc2c(N)ncnc12 [Belvarafenib, 4-amino-N-(1-((3-chloro-2-fluorophenyl)amino)-6-methylisoquinolin-5-yl)thieno[3,2-d]pyrimidine-7-carboxamide]
- Kp (oral 30 mg/kg, AUClast brain / AUClast plasma, read-out: B/P ratio): 0.8
- Cmax (oral 30 mg/kg, brain): 6100 ng/g
- Tmax (oral 30 mg/kg, brain): 7 h
- AUC(0-t) (oral 30 mg/kg, plasma): 133 µg·h/mL
- Cmax (oral 30 mg/kg, plasma): 6210 ng/mL
- Tmax (oral 30 mg/kg, plasma): 7 h
- Kp (male, brain/plasma, oral, 15 mg/kg, read-out: B/P): 0.93
- MRT last (male, in vivo, oral 15 mg/kg, plasma): 14.3 h
- Kp (male, oral 15 mg/kg, AUClast brain / AUClast plasma, read-out: B/P ratio): 0.929
- Cmax (male, oral 15 mg/kg, brain): 5240 ng/g
- MRT last (male, oral 15 mg/kg, brain): 11.8 h
- Tmax (male, oral 15 mg/kg, brain): 7 h
- half-life (male, oral 15 mg/kg, brain): 6.3 h
- AUC(0-inf) (male, oral 15 mg/kg, plasma): 84.3 µg·h/mL
- AUC(0-t) (male, oral 15 mg/kg, plasma): 84.3 µg·h/mL
- Cmax (male, oral 15 mg/kg, plasma): 4780 ng/mL
- Tmax (male, oral 15 mg/kg, plasma): 4 h
- half-life (male, oral 15 mg/kg, plasma): 6.6 h
- AUC(0-inf) (male, oral 30 mg/kg, plasma): 133 µg·h/mL
- AUC(0-t) (male, oral 30 mg/kg, plasma): 133 µg·h/mL
- AUCinf (oral 15 mg/kg, brain): 78297.5 ng·h/g
- AUClast (oral 15 mg/kg, brain): 78259.6 ng·h/g
- AUCinf (oral 30 mg/kg, brain): 100848.0 ng·h/g
- AUClast (oral 30 mg/kg, brain): 100735.8 ng·h/g
- general clinical signs (single oral 15 mg/kg, pre- and post-dosing periods): No clinical signs were observed

Source: patent publication US20240173329A1, “BELVARAFENIB FOR USE IN TREATMENT OF BRAIN CANCERS” (Genentech, Inc., priority 2021, published 2024)
